Data published in patent US8580752B2, “Aromatic amides as potentiators of bioefficacy of anti-infective drugs” (priority 2005, dated 2013).
In brackets after ≈: the same amount, converted by molar mass. Like-named read-outs stand apart in the source and are kept apart here.

Experiments:
Gm +ve bacteria = assay: microbe, parasite or virus in culture; type: cell-based, Gram positive; conditions: for MIC: drug alone, Gm +ve bacteria
Gm −ve bacteria = assay: microbe, parasite or virus in culture; type: cell-based, Gram negative
M. tb = assay: MIC of anti infective drugs alone and with potentiators; type: cell-based, Mycobacterium tuberculosis; conditions: for MIC Drug + potentiator: Ciprofloxacin + potentiator; for % decrease in MIC: Ciprofloxacin + potentiator vs drug alone
S aureus ATCC 29213 = assay: MIC by checkerboard method; type: cell-based, Staphylococcus aureus; conditions: for MIC: Staphylococcus aureus, ATCC29213, Tables 5A/5B, read-out: MIC Mupirocin; for MIC Amikacin / MIC Ciprofloxacin: Tables 5A/5B
M. tuberculosis H37Rv = assay: MIC by checkerboard method; type: cell-based, Mycobacterium tuberculosis; conditions: Tables 5A/5B, M tuberculosis H37Rv
MRSA = assay: MIC by checkerboard method, comparison with piperine; type: cell-based, Staphylococcus aureus; conditions: Tables 5A/5B; for MIC: Staphylococcus aureus, read-out: MIC Mupirocin
[1] = with the labelled potentiator +6.25 μg/ml
[2] = with the labelled potentiator +12.5 μg/ml
[3] = with the labelled potentiator +25.0 μg/ml
[4] = with the labelled potentiator +50.0 μg/ml

CCC(/C=C/C(=O)N1CCCCC1)=C\c1ccc(OC)c(OC)c1 [4-ethyl-5-(3,4-dimethoxyphenyl)-2E,4E-pentadienoic acid piperidide]
% decrease in MIC (Gm +ve bacteria): 50-76%
MIC Drug + potentiator (Gm +ve bacteria): 0.06 to 8 µg/mL
% decrease in MIC (Gm −ve bacteria): 0-50%
MIC Drug + potentiator (Gm −ve bacteria): 0.03 to 0.25 µg/mL
MIC Drug + potentiator (M. tb): 0.25 to 0.5 µg/mL
% decrease in MIC (M. tb): 50%

CCC(/C=C/C(=O)N1CCCCC1)=C\c1cc2c(c([N+](=O)[O-])c1)OCO2 [5-(3,4-methylenedioxy-5-nitrophenyl)-4-ethyl-2E,4E-pentadienoic acid piperidide]
% decrease in MIC (Gm +ve bacteria): 0-50%
MIC Drug + potentiator (Gm +ve bacteria): 0.03 to 0.25 µg/mL

CCC(/C=C/C(=O)N1CCC(O)CC1)=C\c1ccc2c(c1)OCO2 [5-(3,4-methylenedioxyphenyl)-4-ethyl-2E,4E-pentadienoic acid-4-hydroxypiperidide]
% decrease in MIC (Gm +ve bacteria): 0-50%
MIC Drug + potentiator (Gm +ve bacteria): 0.03 to 0.25 µg/mL

CCC(CCC(=O)N1CCCCC1)Cc1ccc2c(c1)OCO2 (stereo not drawn) [5-(3,4-methylenedioxyphenyl)-4-ethyl-pentanoic acid piperidide]
% decrease in MIC (Gm +ve bacteria): 0-50%
MIC Drug + potentiator (Gm +ve bacteria): 0.03 to 0.25 µg/mL

CC(/C=C/C(=O)NC(C)c1ccc(Br)cc1)=C\c1ccc2c(c1)OCO2 (stereo not drawn) [5-(3,4-methylenedioxyphenyl)-4-methyl-2E,4E-pentadienoic acid-1-(4-bromophenyl)ethylamide]
% decrease in MIC (Gm +ve bacteria): 50-76%
MIC Drug + potentiator (Gm +ve bacteria): 0.06 to 8 µg/mL
% decrease in MIC (Gm −ve bacteria): 0-50%
MIC Drug + potentiator (Gm −ve bacteria): 0.03 to 0.25 µg/mL
MIC Drug + potentiator (M. tb): 0.25 to 0.5 µg/mL
% decrease in MIC (M. tb): 50%

CC(/C=C/C(=O)N1CCN(C)CC1)=C\c1ccc2c(c1)OCO2 [5-(3,4-methylenedioxyphenyl)-4-methyl-2E,4E-pentadienoic acid-N-methylpiperazide]
% decrease in MIC (Gm +ve bacteria): 50-76%
MIC Drug + potentiator (Gm +ve bacteria): 0.06 to 0.12 µg/mL

CCCCC(/C=C/C(=O)N1CCCCC1)=C\c1ccc2c(c1)OCO2 [5-(3,4-methylenedioxyphenyl)-4-n-butyl-2E,4E-pentadienoic acid piperidide]
% decrease in MIC (Gm +ve bacteria): 50-76%
MIC Drug + potentiator (Gm +ve bacteria): 0.06 to 8 µg/mL
% decrease in MIC (Gm −ve bacteria): 0-50%
MIC Drug + potentiator (Gm −ve bacteria): 0.03 to 0.25 µg/mL
MIC Drug + potentiator (M. tb): 0.25 to 0.5 µg/mL
% decrease in MIC (M. tb): 50%

CCN(CC)C(=O)/C=C/C(C)=C/c1ccc2c(c1)OCO2 [Formula 1a, R = CH3, do, R5 = R6 = C2H5, 5-(3,4-methylenedioxyphenyl)-4-methyl-2E,4E-pentadienoic acid-N,N-diethylamide]
% decrease in MIC (Gm +ve bacteria): 50-76%
MIC Drug + potentiator (Gm +ve bacteria): 0.06 to 0.12 µg/mL

CCn1cc(C(=O)O)c(=O)c2cc(F)c(N3CCNCC3)cc21 [Norfloxacin, reference compound]
MIC (Gm +ve bacteria): 0.12 to 32 µg/mL (≈ 0.376 to 100 µM)
MIC Drug alone (Gm −ve bacteria; drug alone, Gm −ve bacteria): 0.03 to 64 µg/mL

CC1COc2c(N3CCN(C)CC3)c(F)cc3c(=O)c(C(=O)O)cn1c23 (stereo not drawn) [Ofloxacin, reference compound]
MIC (Gm +ve bacteria): 12 to 32 µg/mL (≈ 33.2 to 88.6 µM)
MIC (Gm −ve bacteria; drug alone, Gm −ve bacteria, read-out: MIC Drug alone): 0.06 to 32 µg/mL (≈ 0.166 to 88.6 µM)
MIC (M. tb; Mycobacterium tuberculosis, drug alone): 0.5 to 2.5 µg/mL

O=C(/C=C/C=C/c1ccc2c(c1)OCO2)N1CCCCC1 [Piperine, reference compound]
MIC (S aureus ATCC 29213; [1]): 0.12 µg/mL
MIC (S aureus ATCC 29213; [2]): 0.12 µg/mL
MIC (S aureus ATCC 29213; [3]): 0.06 µg/mL
MIC (S aureus ATCC 29213; [4]): 0.06 µg/mL
MIC Amikacin (S aureus ATCC 29213; [1]): 2.0 µg/mL
MIC Ciprofloxacin (S aureus ATCC 29213; [1]): 0.25 µg/mL
MIC Amikacin (S aureus ATCC 29213; [2]): 1.0 µg/mL
MIC Ciprofloxacin (S aureus ATCC 29213; [2]): 0.25 µg/mL
MIC Amikacin (S aureus ATCC 29213; [3]): 0.5 µg/mL
MIC Ciprofloxacin (S aureus ATCC 29213; [3]): 0.12 µg/mL
MIC Amikacin (S aureus ATCC 29213; [4]): 0.25 µg/mL
MIC Ciprofloxacin (S aureus ATCC 29213; [4]): 0.12 µg/mL
MIC Rifampicin (M. tuberculosis H37Rv; [1]): 0.12 µg/mL
MIC Rifampicin (M. tuberculosis H37Rv; [2]): 0.06 µg/mL
MIC Rifampicin (M. tuberculosis H37Rv; [3]): 0.06 µg/mL
MIC (MRSA; [1]): 0.12 µg/mL
MIC (MRSA; [2]): 0.12 µg/mL
MIC (MRSA; [3]): 0.06 µg/mL
MIC (MRSA; [4]): 0.06 µg/mL
MIC Amikacin (MRSA; [1]): 4.0 µg/mL
MIC Ciprofloxacin (MRSA; [1]): 32 µg/mL
MIC Amikacin (MRSA; [2]): 4.0 µg/mL
MIC Ciprofloxacin (MRSA; [2]): 32 µg/mL
MIC Amikacin (MRSA; [3]): 4.0 µg/mL
MIC Ciprofloxacin (MRSA; [3]): 32 µg/mL
MIC Amikacin (MRSA; [4]): 4.0 µg/mL
MIC Ciprofloxacin (MRSA; [4]): 16 µg/mL
